Measurements taken from patent publication US20240252493A1, “Apelin Receptor Modulators for Treating Age-Related Muscle Conditions” (BIOAGE LABS, INC., priority 2021, published 2024).
“Also recorded” adds a separate entry of the source.

Assays:
[1] = tested on: aged (24-month-old) C57BL/6 mice; assay: Grid hang test (forearm grip strength); format: in vivo; settings: after 64 days of treatment, vs vehicle
Protocol: Four 20-gallon plastic buckets were used to suspend a three-by-three-foot metal grid suspended approximately three feet from the ground. The ground just below the grid was padded with soft material. The metal grid was placed on its side so that it was perpendicular to the buckets' surface. […] Once the grid was completely parallel with the horizontal plane (i.e. the floor), the timer was started. The timer was stopped when the mouse fell onto the padded floor and the time to fall was recorded and graphed.
(§1) To determine whether increased wheel activity was accompanied by an increase in muscle strength, near the end of the frailty study the mice were subjected to a grid hang test, which measures forearm grip strength. […] Average latency to fall increased in the BGE-105-treated mice (p=0.04, Mann-Whitney U test) (FIGS. 3B and 3C). Thus, the increase in running activity observed in BGE-105-treated mice were accompanied by improved forearm grip strength.

[2] = tested on: aged (24-month-old) C57BL/6 mice; assay: Tissue wet weight and body weight at end of frailty study; format: in vivo; settings: vs vehicle
Protocol: The animals were housed with access to voluntary running wheels that wirelessly transmit running data to a computer for analysis. Voluntary running wheel activity levels were measured daily, and body weights were measured every 2 weeks.
as §1

pAMPK = assay: Western blot of pAMPK in heart after oral BGE-105; format: in vivo; settings: mice, oral 45 mg/kg, vs vehicle
Excerpt: Administration of an apelin receptor agonist can induce the phosphorylation and activation of AMPK in heart tissue. Tissue samples were lysed using T-PER tissue protein extraction reagent (Thermo Fisher Scientific #78510) containing EDTA and protease/phosphatase inhibitors on the Omni Bead Ruptor 12 Homogenizer. Total protein was extracted then quantified using Pierce™ BCA Protein Assay Kit. Loaded equal amounts of total protein per lane on a 4-12% SDS-PAGE gel and transferred to PVDF membrane. Membranes were blocked and blotted with anti-phospho-AMPKα-Thr172 (Cell Signaling Technology, CST #2535), total-AMPKα (CST #2532), anti-phospho-Akt-SeR^473 (CST #4060), total-Akt (CST #4685), anti-phospho-ERK-1/2-Thr202/Tyr204 of Erk1 and Thr185/Tyr187 of Erk2 (CST #4370), total-ERK-1/2 (CST #9107) or anti-APLNR receptor (abcam, ab214369) antibodies. Band intensities were normalized to loading control anti-β-Actin (CST #3700) or anti-GAPDH (abcam, ab181602) antibodies. Immunoreactive proteins were detected using SuperSignal™ West Femto Substrate (Thermo Fisher Scientific #34095) and quantified by Image Lab™ software (Bio-Rad Laboratories, Inc.).
Apelin can induce the phosphorylation of Akt in the soleus muscle and improve glucose homeostasis. […]

tibialis of aged mice = assay: CTX-induced muscle injury: histology (cross-sectional area, centrally nucleated fibers); format: in vivo
Protocol: Impairment of muscle regeneration can contribute to age-related muscle weakness. This is particularly true in aged individuals who engage in physical activity. Exercise-induced muscle hypertrophy is linked to the capacity of muscle stem cells to be activated and promote regeneration.
Mice were i.p injected with buprenorphine (Centravet, 0.1 mg/kg) 30 minutes before injury and the day after. The day of the injury, mice were anesthetized with isoflurane inhalation and hindlimbs were shaved. Then, 10 μM of cardiotoxin (CTX, Latoxan, #L8102) was injected through two injections of 25 μl into the left tibialis muscle and two injections of 50 μl into the left gastrocnemius muscle, using a 22-gauge needle (Hamilton). Mice were euthanized 3 and 7 days after injury by cervical dislocation, muscles (PBS- and CTX-injected) were cut in two parts, one being snap frozen into liquid nitrogen for total RNA extraction and the other part being embedded into OCT, frozen in isopentane cooled with liquid nitrogen for histological analysis.
Mouse muscle samples were dissected and cryopreserved in OCT frozen in liquid nitrogen cooled isopentane. Samples were then sectioned at 10 μm on a cryostat and post-fixed with 4% Paraformaldehyde (PFA) for 15min at room temperature. Muscle frozen sections (10 μm) were stained by helaun/eosin or immune-labeled for laminin (Abcam) and embryonic myosin. Briefly, sections were blocked 1 h in PBS plus 4% BS(a), 2% goat serum, 0.01% Triton X-100. Sections were then incubated overnight with primary antibodies. After washes in PBS, sections were incubated 1 h with secondary antibodies anti-Ig2b AF 488 (Life Technology). Slides were finally mounted in ProLong Gold antifade Reagent (Molecular probes by Life Technology) with DAPI. Images were captured using a digital camera (Nanozoomer, Hamamatsu) attached to a motorized fluorescence microscope or using Olympus VS120 Virtual Microscopy Slide Scanning System. The area covered by eMHC-positive fibers and degenerated area was determined manually across the entire sections using the VS-ASW FL software measurement tools. The size of myofibers with central nuclei was calculated from laminin/DAPI staining on all fibers of the section and area determination were performed across the entire sections, using an automated image processing algorithm developed internally using the MetaXpress software (Molecular Devices).

25-HMC [3] = assay: Proliferation of immortalized human muscle cells, younger donor; format: cell-based; settings: for cell proliferation (measured at day 4): younger subject cells
Protocol: (§2) Immortalized human cells from male donors (25-HMC) […] (79-HMC) are grown from the proliferation stage until they become 80% confluent, differentiate, and become myotubes. […] Early proliferation markers (Pax7, Myf5, MyoD, and MyoG were assessed via RT-PCR (FIG. 8D to 8K)

25-HMC [4] = assay: Early proliferation marker expression (RT-PCR), younger donor cells; format: cell-based, human
Protocol: as §2

apelin receptor = assay: Apelin receptor levels after one month of BGE-105 in immobilized aged mice; format: in vivo; settings: after one month of treatment at 50 mg/kg BID
Protocol: After 3 weeks of treatment following casting, mice were euthanized 1 hour after the final ZT1 dose, and tissues isolated, weighed, then flash frozen in liquid nitrogen for subsequent western blot analysis.

[5] = tested on: immobilized human muscles; assay: Bed rest study in healthy older adult humans; format: in vivo; settings: healthy older adults, 10 days bed rest, 200 mg a day
Excerpt: Two groups of healthy older adult humans (e.g., N=10 per group) who are moderately active remain in bed continuously for 10 days, except for toileting, and they consume a eucaloric diet providing the recommended dietary allowance for protein (0.8 g/kg of protein per day). […] Measurements before and after bed rest include muscle function and protein synthesis.

rats = settings: cited from earlier work

Structure (SMILES): COc1cccc(OC)c1-n1c(NS(=O)(=O)[C@@H](C)[C@H](C)c2ncc(C)cn2)nnc1-c1cncc(C)c1 [BGE-105, (2S,3R)—N-(4-(2,6-dimethoxyphenyl)-5-(5-methyl-3-pyridinyl)-4H-1,2,4-triazol-3-yl)-3-(5-methyl-2-pyrimidinyl)-2-butanesulfonamide]
- latency to fall in grid hang test (grip strength) [1]: statistically significant improvement in grip strength; also recorded: increase in the latency to fall; also recorded: increased
- body weight [2]: the increase was not significant
- tissue wet weight, gastrocnemius [2]: trend toward higher tissue wet weight
- tissue wet weight, heart [2]: no difference
- tissue wet weight, quadriceps [2]: trend toward higher tissue wet weight
- tissue wet weight, tibialis anterior (TA) [2]: significantly higher tissue wet weight
- pAMPK levels in the heart (pAMPK): increased levels; also recorded: significantly higher
- amount of centrally nucleated myofibers (CNM) (tibialis of aged mice; 18-months old mice after cardiotoxin, apelin 0.5 μmol/kg/day, BGE-105 200 mg/kg/day): significant increase
- central nuclei in regenerating fibers (tibialis of aged mice; aged mice after cardiotoxin, BGE-105 50 or 200 mg/kg/day): promoted accumulation of central nuclei; also recorded: dose-dependent increase in central nucleated fibers
- cross-sectional area of the tibialis (tibialis of aged mice; aged mice, 3 and 7 days post cardiotoxin, apelin, BGE-105 50 and 200 mg/kg/d): positive effect; also recorded: significant increase in cross sectional area
- cell proliferation, short-term treatment (25-HMC [3]; young donor cells, day 0 to day 4 post seeding): significant increase of cell proliferation
- cell proliferation (measured at day 4) (25-HMC [3]; 5 nM): increase
- cell proliferation (measured at day 4) (25-HMC [3]; 50 nM): significant increase in cell proliferation
- expression of muscle cell differentiation markers Pax7 and MyoD (25-HMC [4]; young donor cells): increased the expression
- MyoD expression (25-HMC [4]; younger cells, 5 nM): very significant increase
- Myf5 expression (25-HMC [4]; younger cells, 5 and 50 nM): equal to apelin treatment
- Pax7 expression (25-HMC [4]; younger cells, 5 and 50 nM): recapitulated the levels of apelin
- MyoG expression (FIG. 8F) (25-HMC [4]; younger cells, any amount of BGE-105, relative to control): no change
- apelin receptor levels (apelin receptor): noticeable but non-significant drop
- muscle atrophy in immobilized human muscles [5]: prevent or attenuate muscle atrophy
- cardiovascular response (rats): induces a cardiovascular response
